Our source for the GI50 and TGI values is PubChem BioAssay (NCI).

Test systems include OVCAR-4 ovarian; SK-MEL-28 melanoma; SK-MEL-2 melanoma; MCF7 breast; SNB-75 CNS; SF-539 CNS; DU-145 prostate; BT-549 breast; K-562 leukemia; HCC-2998 colon.
Holding throughout (test): NCI tumour cell line growth inhibition, 48 h

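Results reflect a 48-hour exposure of cells in 96-well plates to compound at five concentrations. GI50 = concentration required for 50% inhibition of growth. Definition used: TGI = concentration required for complete inhibition of growth.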

Take `CCCCN(CC)CCCCCCCCCCN1CCCc2cc(OC)ccc21`: the GI50 with OVCAR-4 ovarian was 4.33 µM; in the experiment with SK-MEL-28 melanoma, 2.92 µM; in the experiment on SK-MEL-2 melanoma, 1.95 µM; with MCF7 breast, 1800 nM; with SNB-75 CNS, 3.02 µM; in the experiment with SF-539 CNS, 3.32 µM. Moreover, the GI50 with DU-145 prostate is 6.48 µM; in the experiment on BT-549 breast, 3.63 µM; in the experiment with K-562 leukemia it was 2210 nM; with HCC-2998 colon it was 2.32 µM. In addition, the TGI is 19.6 µM with OVCAR-4 ovarian; 7.33 µM in the experiment on SK-MEL-28 melanoma; 4.15 µM with SK-MEL-2 melanoma; 3.59 µM in the experiment with MCF7 breast; 11 µM in the experiment on SNB-75 CNS; 9.35 µM in the experiment on SF-539 CNS. Further, the TGI with DU-145 prostate stood at 53 µM; in the experiment with BT-549 breast, 12.5 µM; in the experiment with K-562 leukemia it was 5.69 µM; in the experiment with HCC-2998 colon it was 6.38 µM.

Consider `CN(CSc1ccc(Cl)cc1)c1ccc(CSc2ccc(Cl)cc2)cc1`, for which the GI50 with OVCAR-4 ovarian is 3.15 µM; with SK-MEL-28 melanoma, 5.55 µM; in the experiment on SK-MEL-2 melanoma it was 14.2 µM; in the experiment on MCF7 breast it was 3170 nM; in the experiment on SNB-75 CNS, 2.93 µM; in the experiment on SF-539 CNS, 2.35 µM. Moreover, the GI50 in the experiment on DU-145 prostate is 6.69 µM; in the experiment on BT-549 breast it was 1.16 µM; with K-562 leukemia it was 6640 nM; in the experiment on HCC-2998 colon, 4.81 µM. Further, the TGI with OVCAR-4 ovarian is 20 µM; with SK-MEL-28 melanoma, 19.6 µM; with SK-MEL-2 melanoma, 36.2 µM; in the experiment with MCF7 breast, 18.5 µM; in the experiment with SNB-75 CNS, 16.1 µM; in the experiment on SF-539 CNS, 6.48 µM. Moreover, the TGI with DU-145 prostate is 25.3 µM; with BT-549 breast it was 3.6 µM; in the experiment on K-562 leukemia, above 100 µM; in the experiment with HCC-2998 colon, 18.3 µM.

Take `CCC(C)CC(C)C(=O)c1c(O)ccn(O)c1=O` (centres undefined): the GI50 in the experiment with OVCAR-4 ovarian is 0.561 µM; with SK-MEL-28 melanoma it was 2.27 µM; in the experiment with SK-MEL-2 melanoma, 3.63 µM; with MCF7 breast, 3090 nM; in the experiment on SNB-75 CNS it was 4.12 µM; in the experiment on SF-539 CNS it was 1.04 µM. For the same compound, the GI50 in the experiment with DU-145 prostate was 2.1 µM; with BT-549 breast, 2.56 µM; in the experiment with K-562 leukemia, 631 nM; with HCC-2998 colon, 6 µM. Besides, the TGI is above 100 µM in the experiment with OVCAR-4 ovarian; above 100 µM with SK-MEL-28 melanoma; 48.6 µM with SK-MEL-2 melanoma; above 100 µM in the experiment with MCF7 breast; above 100 µM with SNB-75 CNS; 8.08 µM with SF-539 CNS. Also, the TGI in the experiment on DU-145 prostate is above 100 µM; in the experiment with BT-549 breast it was 37.9 µM; in the experiment with K-562 leukemia it was above 100 µM; in the experiment on HCC-2998 colon it was above 100 µM.

As to `N#C/C(=C\c1ccc(F)cc1)n1nc2cccc(F)c2n1`, the GI50 in the experiment on OVCAR-4 ovarian is 4.19 µM; with SK-MEL-28 melanoma, 5.8 µM; in the experiment with SK-MEL-2 melanoma, 5.26 µM; in the experiment with MCF7 breast, 2240 nM; in the experiment on SNB-75 CNS, 2.37 µM; with SF-539 CNS it was 3.14 µM. The GI50 in the experiment on DU-145 prostate was 3.2 µM; with BT-549 breast, 4.72 µM; with K-562 leukemia, 3250 nM; in the experiment on HCC-2998 colon it was 7.14 µM. Also, the TGI in the experiment on OVCAR-4 ovarian is above 100 µM; in the experiment on SK-MEL-28 melanoma it was above 100 µM; in the experiment on SK-MEL-2 melanoma, above 100 µM; with MCF7 breast, above 100 µM; in the experiment on SNB-75 CNS, 8.09 µM; with SF-539 CNS, 11.1 µM. Also, the TGI in the experiment on DU-145 prostate, in the experiment on BT-549 breast, in the experiment with K-562 leukemia and in the experiment on HCC-2998 colon was above 100 µM throughout.

Take `O=C(O)c1ccc(C(=O)O)c(C(=O)O)c1.[NH-]C1CCCCC1[NH-].[Pt+2]`: the GI50 was 7.73 µM in the experiment on OVCAR-4 ovarian; 4.97 µM in the experiment with SK-MEL-28 melanoma; 14.3 µM with SK-MEL-2 melanoma; 2300 nM in the experiment on MCF7 breast; 18 µM with SNB-75 CNS; 4.29 µM in the experiment on SF-539 CNS. For the same compound, the GI50 with DU-145 prostate is 11.1 µM; in the experiment with BT-549 breast, 23.8 µM; in the experiment with HCC-2998 colon, 13.4 µM. The TGI in the experiment on OVCAR-4 ovarian worked out at 50.2 µM; in the experiment on SK-MEL-28 melanoma, 48.1 µM; in the experiment on SK-MEL-2 melanoma it was 61.4 µM; in the experiment on MCF7 breast, 31.9 µM; with SNB-75 CNS, 78.9 µM; in the experiment with SF-539 CNS, 43.5 µM. Also, the TGI in the experiment with DU-145 prostate turned out to be 84.1 µM; with BT-549 breast it was 54.2 µM; with K-562 leukemia, 88.9 µM; in the experiment with HCC-2998 colon it was 48.7 µM.

Take `Cn1c(NCC(CN2CCCC2)OC(=O)c2ccccc2)cc(=O)n(C)c1=O` (centres undefined): the GI50 in the experiment with OVCAR-4 ovarian is above 100 µM; in the experiment on SK-MEL-28 melanoma it was above 100 µM; with SK-MEL-2 melanoma it was above 100 µM; in the experiment on MCF7 breast it was above 100000 nM; in the experiment with SNB-75 CNS it was above 100 µM; in the experiment on SF-539 CNS, above 100 µM. Besides, the GI50 is above 100 µM with DU-145 prostate, above 100 µM in the experiment with BT-549 breast, above 100000 nM with K-562 leukemia and above 100 µM in the experiment with HCC-2998 colon. The TGI in the experiment on OVCAR-4 ovarian, in the experiment with SK-MEL-28 melanoma, with SK-MEL-2 melanoma, with MCF7 breast, in the experiment with SNB-75 CNS and in the experiment on SF-539 CNS was above 100 µM each time. For the same compound, the TGI in the experiment with DU-145 prostate, with BT-549 breast, with K-562 leukemia and with HCC-2998 colon was above 100 µM throughout.

As to `O=C(Nc1ccc(I)cc1)c1cccc([N+](=O)[O-])c1O`, the GI50 is 2.61 µM with OVCAR-4 ovarian; 4.63 µM in the experiment on SK-MEL-28 melanoma; 2.6 µM in the experiment on SK-MEL-2 melanoma; 2760 nM with MCF7 breast; 2.77 µM in the experiment on SNB-75 CNS; 4.85 µM with SF-539 CNS. Moreover, the GI50 in the experiment with DU-145 prostate was 6.46 µM; in the experiment with BT-549 breast, 3.01 µM; with K-562 leukemia, 2640 nM; in the experiment with HCC-2998 colon it was 4.19 µM. The TGI is 25 µM in the experiment on OVCAR-4 ovarian; above 100 µM in the experiment with SK-MEL-28 melanoma; 8.79 µM in the experiment with SK-MEL-2 melanoma; above 100 µM with MCF7 breast; 38.6 µM with SNB-75 CNS; above 100 µM in the experiment on SF-539 CNS. Also, the TGI in the experiment on DU-145 prostate was above 100 µM; with BT-549 breast, 19 µM; in the experiment on K-562 leukemia, above 100 µM; in the experiment on HCC-2998 colon, 44.3 µM.

`O=C1/C(=C\c2ccccc2)CN(C(=O)c2ccccc2)C/C1=C\c1ccccc1`: the GI50 in the experiment with OVCAR-4 ovarian was 2.98 µM; with SK-MEL-28 melanoma, 1.82 µM; in the experiment on SK-MEL-2 melanoma, 3.5 µM; in the experiment on MCF7 breast, 390 nM; in the experiment with SNB-75 CNS, 7.24 µM; in the experiment on SF-539 CNS, 2.27 µM. For the same compound, the GI50 was 5.02 µM in the experiment on DU-145 prostate, 1.86 µM in the experiment with BT-549 breast, 1670 nM in the experiment on K-562 leukemia and 1.89 µM in the experiment with HCC-2998 colon. The TGI turned out to be 11.4 µM with OVCAR-4 ovarian; 3.47 µM in the experiment on SK-MEL-28 melanoma; 8.96 µM in the experiment on SK-MEL-2 melanoma; 1.69 µM in the experiment with MCF7 breast; 22 µM in the experiment with SNB-75 CNS; 6.24 µM with SF-539 CNS. Besides, the TGI in the experiment on DU-145 prostate was 16.4 µM; in the experiment with BT-549 breast, 3.58 µM; with K-562 leukemia, above 100 µM; in the experiment on HCC-2998 colon, 3.48 µM.

Turning to `C/C(=N/NC(=S)N1CC2CCC(CC2)C1)c1cnccn1`, the TGI stood at 5.59 µM in the experiment with OVCAR-4 ovarian; 22.4 µM with SK-MEL-28 melanoma; 8.75 µM with SK-MEL-2 melanoma; 12.1 µM in the experiment with MCF7 breast; 7.02 µM in the experiment with SNB-75 CNS; 15.6 µM in the experiment with SF-539 CNS. The TGI in the experiment on DU-145 prostate was 13.8 µM; in the experiment with BT-549 breast, 16.7 µM; in the experiment on K-562 leukemia, 0.472 µM; with HCC-2998 colon, 13.6 µM.

For the compound `COc1ccc(C2CC(c3ccc4ccccc4c3)=NN2c2nc(O)c(C3=c4cc(OC)ccc4=NC3=O)s2)cc1` (centres undefined), the GI50 was 0.033 µM in the experiment with OVCAR-4 ovarian; 0.0932 µM in the experiment on SK-MEL-28 melanoma; 0.178 µM in the experiment on SK-MEL-2 melanoma; 31.5 nM in the experiment with MCF7 breast; 0.0779 µM in the experiment with SNB-75 CNS; 0.741 µM in the experiment with SF-539 CNS. Moreover, the GI50 in the experiment on DU-145 prostate was 0.0449 µM; in the experiment on BT-549 breast, 0.978 µM; in the experiment with K-562 leukemia, 66.2 nM; with HCC-2998 colon, 0.0762 µM. Moreover, the TGI was 0.128 µM in the experiment on OVCAR-4 ovarian; 0.334 µM in the experiment with SK-MEL-28 melanoma; 0.497 µM in the experiment with SK-MEL-2 melanoma; 0.75 µM in the experiment on MCF7 breast; 0.445 µM with SNB-75 CNS; 4.34 µM with SF-539 CNS. Besides, the TGI is 14.1 µM with DU-145 prostate, 17.5 µM with BT-549 breast, above 32.3 µM with K-562 leukemia and 0.265 µM in the experiment with HCC-2998 colon.

`NC(=O)CCc1ccccc1Oc1nccc(-c2c(-c3ccc(F)cc3)ncn2C2CCNCC2)n1`: the GI50 in the experiment on OVCAR-4 ovarian was above 25 µM; in the experiment on SK-MEL-28 melanoma it was above 25 µM; with SK-MEL-2 melanoma it was above 25 µM; with MCF7 breast, above 25000 nM; in the experiment with SNB-75 CNS, above 25 µM; in the experiment on SF-539 CNS it was above 25 µM. The GI50 was above 25 µM with DU-145 prostate, above 25 µM in the experiment with BT-549 breast, above 25000 nM in the experiment with K-562 leukemia and above 25 µM in the experiment on HCC-2998 colon. Moreover, the TGI in the experiment on OVCAR-4 ovarian, in the experiment with SK-MEL-28 melanoma, in the experiment on SK-MEL-2 melanoma, with MCF7 breast, in the experiment with SNB-75 CNS and with SF-539 CNS was above 25 µM each time. Moreover, the TGI in the experiment with DU-145 prostate, in the experiment on BT-549 breast, in the experiment with K-562 leukemia and with HCC-2998 colon was above 25 µM throughout.
